Columns and labels:
Assay in all cases: relative viability (nuclei count vs DMSO), 5 days (fraction); higher = more cells survive
A-427 = system: A-427
Outline: (§1)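 Relative viability divides the nuclei count in treated wells by that in vehicle wells. Lung cancer cell lines were seeded in 1536-well plates, dosed by pin tool the next day, and fixed and stained after 5 days in one step with final 0.05% Triton X-100, 1% formaldehyde and 1 ug/ml Hoechst. Dosing was a single drug or a fixed anchor-drug dose plus five library-drug doses (not always all listed) in √10 steps, and values are medians of duplicate plates imaged at 4×.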

COR-L 105 = system: COR-L 105
Outline: as §1

ChaGo-K-1 = system: ChaGo-K-1
Outline: as §1

EKVX = system: EKVX
Outline: as §1

EMC-BAC-2 = system: EMC-BAC-2
Outline: as §1

H3255 = system: H3255
Outline: as §1

HCC-366 = system: HCC-366
Outline: as §1

LK-2 = system: LK-2
Outline: as §1

LOU-NH91 = system: LOU-NH91
Outline: as §1

NCI-H1563 = system: NCI-H1563
Outline: as §1

NCI-H1666 = system: NCI-H1666
Outline: as §1

NCI-H1734 = system: NCI-H1734
Outline: as §1

NCI-H1755 = system: NCI-H1755
Outline: as §1

NCI-H1975 = system: NCI-H1975
Outline: as §1

NCI-H2170 = system: NCI-H2170
Outline: as §1

NCI-H23 = system: NCI-H23
Outline: as §1

NCI-H441 = system: NCI-H441
Outline: as §1

NCI-H520 = system: NCI-H520
Outline: as §1

NCI-H596 = system: NCI-H596
Outline: as §1

PC-3 [JPC-3] = system: PC-3 [JPC-3]
Outline: as §1

SK-MES-1 = system: SK-MES-1
Outline: as §1

SW 900 = system: SW 900
Outline: as §1

COc1cc2nccc(Oc3ccc(NC(=O)Nc4cc(C)on4)c(Cl)c3)c2cc1OC [Tivozanib] + Nc1nc2[nH]cc(CCc3ccc(C(=O)N[C@@H](CCC(=O)O)C(=O)O)cc3)c2c(=O)[nH]1 [Pemetrexed] (partner 0.2 µM) gave a relative viability (A-427; first compound 0.005 µM) of 0.973, a relative viability (A-427; first compound 0.01581 µM) of 0.952 and a relative viability (A-427; first compound 0.05 µM) of 0.961. The relative viability (A-427; first compound 0.1581 µM) was 0.926, the relative viability (A-427; first compound 0.5 µM) was 0.979 and the relative viability (COR-L 105; first compound 0.005 µM) was 0.919. For the same compound, the relative viability (COR-L 105; first compound 0.01581 µM) was 1.08, the relative viability (COR-L 105; first compound 0.05 µM) was 1.34 and the relative viability (COR-L 105; first compound 0.1581 µM) was 1.13. The relative viability (COR-L 105; first compound 0.5 µM) was 1.27, the relative viability (ChaGo-K-1; first compound 0.005 µM) was 0.235 and the relative viability (ChaGo-K-1; first compound 0.01581 µM) was 0.271. The relative viability (ChaGo-K-1; first compound 0.05 µM) was 0.253, the relative viability (ChaGo-K-1; first compound 0.1581 µM) was 0.273 and the relative viability (ChaGo-K-1; first compound 0.5 µM) was 0.264. The relative viability (EKVX; first compound 0.005 µM) was 0.377, the relative viability (EKVX; first compound 0.01581 µM) was 0.408 and the relative viability (EKVX; first compound 0.05 µM) was 0.394. It also gave a relative viability (EKVX; first compound 0.1581 µM) of 0.432, a relative viability (EKVX; first compound 0.5 µM) of 0.355 and a relative viability (EMC-BAC-2; first compound 0.005 µM) of 0.463. It also gave a relative viability (EMC-BAC-2; first compound 0.01581 µM) of 0.465, a relative viability (EMC-BAC-2; first compound 0.05 µM) of 0.431 and a relative viability (EMC-BAC-2; first compound 0.1581 µM) of 0.507. For the same compound, the relative viability (EMC-BAC-2; first compound 0.5 µM) was 0.398, the relative viability (H3255; first compound 0.005 µM) was 0.545 and the relative viability (H3255; first compound 0.01581 µM) was 0.563. The relative viability (H3255; first compound 0.05 µM) was 0.583, the relative viability (H3255; first compound 0.1581 µM) was 0.55 and the relative viability (H3255; first compound 0.5 µM) was 0.547. For the same compound, the relative viability (HCC-366; first compound 0.005 µM) was 0.16, the relative viability (HCC-366; first compound 0.01581 µM) was 0.192 and the relative viability (HCC-366; first compound 0.05 µM) was 0.162. It also gave a relative viability (HCC-366; first compound 0.1581 µM) of 0.234, a relative viability (HCC-366; first compound 0.5 µM) of 0.126 and a relative viability (LK-2; first compound 0.005 µM) of 0.254. It also gave a relative viability (LK-2; first compound 0.01581 µM) of 0.258, a relative viability (LK-2; first compound 0.05 µM) of 0.289 and a relative viability (LK-2; first compound 0.1581 µM) of 0.203. It also gave a relative viability (LK-2; first compound 0.5 µM) of 0.197, a relative viability (LOU-NH91; first compound 0.005 µM) of 0.341 and a relative viability (LOU-NH91; first compound 0.01581 µM) of 0.364. The relative viability (LOU-NH91; first compound 0.05 µM) was 0.371, the relative viability (LOU-NH91; first compound 0.1581 µM) was 0.525 and the relative viability (LOU-NH91; first compound 0.5 µM) was 0.338. The relative viability (NCI-H1563; first compound 0.005 µM) was 0.657, the relative viability (NCI-H1563; first compound 0.01581 µM) was 0.887 and the relative viability (NCI-H1563; first compound 0.05 µM) was 0.698. For the same compound, the relative viability (NCI-H1563; first compound 0.1581 µM) was 0.594, the relative viability (NCI-H1563; first compound 0.5 µM) was 0.728 and the relative viability (NCI-H1666; first compound 0.005 µM) was 0.829. For the same compound, the relative viability (NCI-H1666; first compound 0.01581 µM) was 0.877, the relative viability (NCI-H1666; first compound 0.05 µM) was 0.932 and the relative viability (NCI-H1666; first compound 0.1581 µM) was 0.797. The relative viability (NCI-H1666; first compound 0.5 µM) was 0.75, the relative viability (NCI-H1734; first compound 0.005 µM) was 0.426 and the relative viability (NCI-H1734; first compound 0.01581 µM) was 0.39. The relative viability (NCI-H1734; first compound 0.05 µM) was 0.404, the relative viability (NCI-H1734; first compound 0.1581 µM) was 0.402 and the relative viability (NCI-H1734; first compound 0.5 µM) was 0.404. It also gave a relative viability (NCI-H1755; first compound 0.005 µM) of 0.376, a relative viability (NCI-H1755; first compound 0.01581 µM) of 0.437 and a relative viability (NCI-H1755; first compound 0.05 µM) of 0.571. The relative viability (NCI-H1755; first compound 0.1581 µM) was 0.468, the relative viability (NCI-H1755; first compound 0.5 µM) was 0.361 and the relative viability (NCI-H1975; first compound 0.005 µM) was 0.271. It also gave a relative viability (NCI-H1975; first compound 0.01581 µM) of 0.285, a relative viability (NCI-H1975; first compound 0.05 µM) of 0.283 and a relative viability (NCI-H1975; first compound 0.1581 µM) of 0.332. For the same compound, the relative viability (NCI-H1975; first compound 0.5 µM) was 0.294, the relative viability (NCI-H2170; first compound 0.005 µM) was 0.24 and the relative viability (NCI-H2170; first compound 0.01581 µM) was 0.262. It also gave a relative viability (NCI-H2170; first compound 0.05 µM) of 0.56, a relative viability (NCI-H2170; first compound 0.5 µM) of 0.255 and a relative viability (NCI-H23; first compound 0.005 µM) of 0.588. For the same compound, the relative viability (NCI-H23; first compound 0.01581 µM) was 0.771, the relative viability (NCI-H23; first compound 0.05 µM) was 0.787 and the relative viability (NCI-H23; first compound 0.5 µM) was 0.54. It also gave a relative viability (NCI-H441; first compound 0.005 µM) of 0.245, a relative viability (NCI-H441; first compound 0.01581 µM) of 0.296 and a relative viability (NCI-H441; first compound 0.05 µM) of 0.246. For the same compound, the relative viability (NCI-H441; first compound 0.1581 µM) was 0.249, the relative viability (NCI-H441; first compound 0.5 µM) was 0.239 and the relative viability (NCI-H520; first compound 0.005 µM) was 0.525. The relative viability (NCI-H520; first compound 0.01581 µM) was 0.572, the relative viability (NCI-H520; first compound 0.05 µM) was 0.552 and the relative viability (NCI-H520; first compound 0.1581 µM) was 0.579. It also gave a relative viability (NCI-H520; first compound 0.5 µM) of 0.61, a relative viability (NCI-H596; first compound 0.005 µM) of 0.492 and a relative viability (NCI-H596; first compound 0.01581 µM) of 0.502. The relative viability (NCI-H596; first compound 0.05 µM) was 0.51, the relative viability (NCI-H596; first compound 0.5 µM) was 0.508 and the relative viability (PC-3 [JPC-3]; first compound 0.01581 µM) was 1.09. The relative viability (PC-3 [JPC-3]; first compound 0.05 µM) was 1.09, the relative viability (PC-3 [JPC-3]; first compound 0.1581 µM) was 1.06 and the relative viability (PC-3 [JPC-3]; first compound 0.5 µM) was 0.936. It also gave a relative viability (SK-MES-1; first compound 0.005 µM) of 0.89, a relative viability (SK-MES-1; first compound 0.01581 µM) of 0.956 and a relative viability (SK-MES-1; first compound 0.05 µM) of 1.13. It also gave a relative viability (SK-MES-1; first compound 0.1581 µM) of 0.948, a relative viability (SK-MES-1; first compound 0.5 µM) of 0.994 and a relative viability (SW 900; first compound 0.005 µM) of 0.463. It also gave a relative viability (SW 900; first compound 0.01581 µM) of 0.465, a relative viability (SW 900; first compound 0.05 µM) of 0.507 and a relative viability (SW 900; first compound 0.5 µM) of 0.493.

Source: the supplement of paper PMC10307832
